According to patent publication US20190022167A1, “METHODS AND COMPOSITIONS FOR THE PREVENTION AND TREATMENT OF DUCHENNE MUSCULAR DYSTROPHY” (priority 2016, published 2019):
Where no end group is shown, it is not given here. [ ]: non-standard residue; d: D form.

How the values were obtained:
[1] = system: DBA/2J-mdx mice; test: Left ventricular mitochondrial H2O2 emission in permeabilized muscle fiber bundles (spectrofluorometry, Amplex UltraRed) after 12 weeks of treatment; format: in vivo, mouse; details: 5 mg/kg daily subcutaneous for 12 weeks
Description: (§1) Left ventricular mitochondrial H2O2 emission (measured by spectrofluorometry; Amplex UltraRed fluorophore) and respiration (measured by high-resolution respirometry; Oroboros Oxygraph) were assessed in permeabilized muscle fiber bundles (PmFB) from DBA/2J-mdx mice (DMD mice) that were about 4 weeks of age, DBA/2J wildtype mice (wt mice) that were about 4 weeks of age, DMD mice treated with daily subcutaneous injections of Phe-D-Arg-Phe-Lys-NH2 (5mg/kg) for 12 weeks (treated DMD mice), and DMD mice treated with daily subcutaneous injections of […] for 12 weeks (untreated DMD mice). H2O2 emission was measured in the presence of physiological ADP (25 μM). ADP is a suppressor of H2O2 emission during respiration and is affected by the phosphate-shuttling activity of mitochondrial creatine kinase (mtCK). The effect of mtCK was assessed by saturating creatine (Cr) in vitro.

[2] = system: DBA/2J-mdx mice; test: Left ventricular mitochondrial respiration in permeabilized muscle fiber bundles (high-resolution respirometry, Oroboros Oxygraph) after 12 weeks of treatment; format: in vivo, mouse; details: 5 mg/kg daily subcutaneous for 12 weeks; for ADP, complex I-supported respiration: treated DMD mice
Description: as §1

[3] = system: subjects suspected of having or diagnosed as having DMD; test: Treatment of DMD in humans (Example 1); format: in vivo, human; details: for Effect of combination with one or more additional therapeutic agents: compared to peptides or additional agents alone, expected; for Severity of symptoms associated with DMD: daily 1%, 5% or 10% solution, predicted
From the text: (§2) Subjects suspected of having or diagnosed as having DMD receive daily administrations of 1%, 5% or 10% solution of aromatic-cationic peptide, such as 2′6′-Dmt-D-Arg-Phe-Lys-NH2, Phe-D-Arg-Phe-Lys-NH2, or D-Arg-2′6′-Dmt-Lys-Phe-NH2, or a pharmaceutically acceptable salt thereof, such as acetate, tartrate, hydrochloride salt, or trifluoroacetate salt, alone or in combination with one or more additional therapeutic agents for the treatment or prevention of DMD. Peptides and/or additional therapeutic agents selected from the group consisting of: corticosteroids, Oxandrolone, ACE inhibitors, P188(Poloxamer 188), beta-blockers, diuretics, angiotensin receptor blockers (ARBs), idebenone, alendronate, calcium with vitamin D, albuterol, dantrolene, pentoxifylline, carnitine, Coenzyme Q10, creatine, fish oil, green tea extracts, Vitamin E, PTC-124 (PTC Therapeutics Inc., South Plainfield, N.J.), AVI-4658 phosphorodiamidate morpholino oligomer, azathioprine and cyclosporine, are administered orally, topically, systemically, intravenously, subcutaneously, intraperitoneally, or intramuscularly according to methods known in the art. Dosages of the one or more additional therapeutic agents will range between 0.1 mg/kg to 50 mg/kg. Subjects will be evaluated weekly for the presence and/or severity of signs and symptoms associated with DMD, including, but not limited to, e.g., progressive proximal weakness with onset in the legs and pelvis, hyperlordosis with wide-based gait, hypertrophy of weak muscles, pseudohypertrophy (enlargement of calf and deltoid muscles with fat and fibrotic tissue), reduced muscle contractility on electrical stimulation in advanced stages of the disease, delayed motor milestones, progressive inability to ambulate, heel cord contractures, paralysis, fatigue, skeletal deformities including scoliosis, muscle fiber deformities, cardiomyopathy, congestive heart failure or arrhythmia, muscular atrophy, and respiratory disorders. Treatments are maintained until such a time as one or more signs or symptoms of DMD are ameliorated or eliminated.

[4] = system: subjects at risk of having DMD; test: Prevention of DMD in humans (Example 2); format: in vivo, human; details: for Effect of combination with one or more additional therapeutic agents: compared to peptides or additional agents alone, expected; for Onset of DMD: daily 1%, 5% or 10% solution, predicted
From the text: as §2, with “at risk” for “suspected”, “of” for “of having or diagnosed as”, “P188 (Poloxamer” for “P188(Poloxamer”, “disorders.” for “disorders. Treatments are maintained until such a time as one or more signs or symptoms of DMD are ameliorated or eliminated.”

[5] = system: several mammalian cell types; details: cited from earlier work

| Substance | mtCK-dependent ADP suppression of H2O2 emission, treated vs untreated DMD mice [1] | ADP-suppression of Complex I-supported H2O2, % of emission at 0 μM ADP/O2 consumed ([1]; +Cr, 25 μM ADP, treated DMD mice) | ADP-suppression of Complex I-supported H2O2, % of 0 μM ADP/O2 consumed ([1]; —Cr, 25 μM ADP, treated DMD mice) | Respiration, treated vs untreated DMD mice ([2]; +Cr or —Cr) | ADP, complex I-supported respiration ([2]; +Cr) | ADP, complex I-supported respiration ([2]; —Cr) | Effect of combination with one or more additional therapeutic agents [3] | Severity of symptoms associated with DMD [3] | Effect of combination with one or more additional therapeutic agents [4] | Onset of DMD [4] | Penetration of the plasma membrane [5] |
| --- | --- | --- | --- | --- | --- | --- | --- | --- | --- | --- | --- |
| F[dR]FK-NH2 | improved | 12+/−1% | 40+/−11% | did not change respiration | 111.4+/−12.0 pmol•s^−1•mg wet wt^−1 | 59.6+/−7.4 pmol•s^−1•mg wet wt^− | synergistic effects | reduced severity or elimination of symptoms associated with DMD | synergistic effects | delayed onset of DMD, or prevention of onset of DMD |  |
| 2′6′-Dmt-D-Arg-Phe-Lys-NH2 |  |  |  |  |  |  | synergistic effects | reduced severity or elimination of symptoms associated with DMD | synergistic effects | delayed onset of DMD, or prevention of onset of DMD | readily penetrates the plasma membrane of several mammalian cell types in an energy-independent manner |
| D-Arg-2′6′-Dmt-Lys-Phe-NH2 |  |  |  |  |  |  | synergistic effects | reduced severity or elimination of symptoms associated with DMD | synergistic effects | delayed onset of DMD, or prevention of onset of DMD |  |
